How the values were obtained:
[1] = system: multiple human tumor cell types; details: combined with cytotoxic, hormonal, and targeted agents; cited from earlier work
PNPLA3 mRNA [2] = experiment: qRT-PCR of PNPLA3 mRNA in compound-treated mouse hepatocytes; assay type: cell-based; details: mouse hepatocytes, 1 μM, normalized to ACTB
Protocol: Analysis of the fold changes in expression as measured by qRT-PCR were performed using the technique below. The control was DMSO, and the treatment was the selected compound (CPD). The internal control was GAPDH or B-Actin (or otherwise indicated), and the gene of interest is the target. First, the averages of the 4 conditions were calculated for normalization: DMSO:GAPDH, DMSO:Target, CPD: GAPDH, and CPD:Target. Next, the ΔCT of both control and treatment were calculated to normalize to internal control (GAPDH) using (DMSO:Target)−(DMSO:GAPDH)=ΔCT control and (CPD:Target)−(CPD: GAPDH)=ΔCT experimental. Then, the ΔΔCT was calculated by ΔCT experimental−ΔCT control. The Expression Fold Change (or Relative Quantification, abbreviated as RQ) was calculated by 2−(ΔΔCT) (2-fold expression change was shown by RNA-Seq results provided herein).
Compounds were tested at concentrations ranging from 0.01 μM to 50 μM. […] PNPLA3 levels were normalized to the level of a house keeping gene ACTB.

PNPLA3 mRNA [3] = experiment: qRT-PCR of PNPLA3 mRNA in human primary hepatic stellate cells; assay type: cell-based; details: for Primary Stellate cells PNPLA3 (fold change in mRNA expression): 3 μM, relative to GAPDH; for Relative mRNA PNPLA3: stellate cells P7, 0.5 μM
COL1A1 mRNA = experiment: qRT-PCR of COL1A1 mRNA in human primary hepatic stellate cells; assay type: cell-based; details: for Primary Stellate cells COL1A1 (fold change in mRNA expression): 3 μM, relative to GAPDH; for Relative mRNA COL1A1: stellate cells P7, 0.5 μM
Protocol: Cells were plated at a density of 17000 cells/well in a 96-well plate and allowed to adhere overnight. The following day cell culture media was replenished with the indicated concentration(s) of compound for 18 hours. […] Medium was removed after 18 hours and cells were processed for further analysis, e.g. qRT-PCR.
Analysis of the fold changes in expression as measured by qRT-PCR were performed using the technique below. The control was DMSO, and the treatment was the selected compound (CPD). The internal control was GAPDH or B-Actin (or otherwise indicated), and the gene of interest is the target. First, the averages of the 4 conditions were calculated for normalization: DMSO:GAPDH, DMSO:Target, CPD: GAPDH, and CPD:Target. Next, the ΔCT of both control and treatment were calculated to normalize to internal control (GAPDH) using (DMSO:Target)−(DMSO:GAPDH)=ΔCT control and (CPD:Target)−(CPD: GAPDH)=ΔCT experimental. Then, the ΔΔCT was calculated by ΔCT experimental−ΔCT control.
Candidate compounds were tested in stellate cells for their ability to modulate PNPLA3 and COL1A1. Stellate cells were treated with serial dilutions of the compounds, ranging from 0.1 μM to 100 μM. Changes in PNPLA3 (or COL1A1) mRNA levels in stellate cells were analyzed with qRT-PCR.

PCSK9 mRNA = experiment: qRT-PCR of PCSK9 mRNA in primary hepatocytes; assay type: cell-based, human; details: donor 4178, 3 μM, relative to GUSB
MMP2 mRNA = experiment: qRT-PCR of fibrosis related genes in stellate cells, MMP2; assay type: cell-based, human; details: stellate cells P7, 0.5 μM, 18 hours
Protocol: (§1) Stellate cells P7 were treated with 0.5 μM of each of the indicated compounds for 18 hours. Cells were processed for RNA extraction and qRT-PCR as previously described. The assay was repeated in triplicate.

TIM2 mRNA = experiment: qRT-PCR of fibrosis related genes in stellate cells, TIM2; assay type: cell-based, human; details: stellate cells P7, 0.5 μM, 18 hours
Protocol: as §1

TGFB1 mRNA = experiment: qRT-PCR of fibrosis related genes in stellate cells, TGFB1; assay type: cell-based, human; details: stellate cells P7, 0.5 μM, 18 hours
Protocol: as §1

COL1A2 mRNA = experiment: qRT-PCR of fibrosis related genes in stellate cells, COL1A2; assay type: cell-based, human; details: stellate cells P7, 0.5 μM, 18 hours
Protocol: as §1

ACTA2 mRNA = experiment: qRT-PCR of fibrosis related genes in stellate cells, ACTA2; assay type: cell-based, human; details: stellate cells P7, 0.5 μM, 18 hours
Protocol: as §1

PNPLA3 mRNA [4] = experiment: qRT-PCR of PNPLA3 mRNA in compound-treated primary human hepatocytes; details: for Primary Hepatocytes 4178 PNPLA3 (fold change in mRNA expression): donor 4178, 3 μM; for Primary Hepatocytes 4178 PNPLA3 (fold change in mRNA expression) / Primary Hepatocytes 4282 PNPLA3 (fold change in mRNA expression): relative to GUSB; for Primary Hepatocytes 4282 PNPLA3 (fold change in mRNA expression): donor 4282, 3 μM
[5] = system: PNPLA3 mRNA in mouse liver; experiment: High sucrose diet mouse pharmacology study, liver PNPLA3 mRNA; assay type: in vivo; details: HS diet mice
Protocol: LY2157299 was also tested in vivo. C57BL/6J mice were divided into […]. Each group had 6 male mice. […] Groups 1-10 received food throughout the dosing period. […] Eyes were also collected for groups 11-14.
(§2) Mouse liver tissues were pulverized in liquid nitrogen and aliquoted into small microtubes. TRIzol (Invitrogen Cat #15596026) was added to the tubes to facilitate cell lysis from tissue samples. The TRIzol solution containing the disrupted tissue was then centrifuged and the supernatant phase was collected. Total RNA was extracted from the supernatant using Qiagen RNA Extraction Kit (Qiagen Cat#74182) and the PNPLA3 mRNA levels were analyzed using qRT-PCR.
(§3) C57BL/6J mice were divided into 14 groups. Each group had 6 male mice. All mice were given an HS diet at night on a synchronized schedule. […] The animals received no food at night on Day 10.
as §2, with “Cat #74182)” for “Cat#74182)”, “target” for “PNPLA3”, “qRT-PCR. mRNA levels for PNPLA3, PNPLA5, COL1A1, and PCSK9 were assessed.” for “qRT-PCR.”

[6] = system: PNPLA5 mRNA in mouse liver; experiment: High sucrose diet mouse dose response study, liver PNPLA5 mRNA; assay type: in vivo; details: HS diet mice, 6 hours post dose
Protocol: as §3
as §2, with “Cat #74182)” for “Cat#74182)”, “target” for “PNPLA3”, “qRT-PCR. mRNA levels for PNPLA3, PNPLA5, COL1A1, and PCSK9 were assessed.” for “qRT-PCR.”

[7] = system: COL1A1 mRNA in mouse liver; experiment: High sucrose diet mouse dose response study, liver COL1A1 mRNA; assay type: in vivo; details: HS diet mice, 6 hours post dose
Protocol: as §3
as §2, with “Cat #74182)” for “Cat#74182)”, “target” for “PNPLA3”, “qRT-PCR. mRNA levels for PNPLA3, PNPLA5, COL1A1, and PCSK9 were assessed.” for “qRT-PCR.”

[8] = system: PCSK9 mRNA in mouse liver; experiment: High sucrose diet mouse dose response study, liver PCSK9 mRNA; assay type: in vivo; details: HS diet mice, 6 hours post dose
Protocol: as §3
as §2, with “Cat #74182)” for “Cat#74182)”, “target” for “PNPLA3”, “qRT-PCR. mRNA levels for PNPLA3, PNPLA5, COL1A1, and PCSK9 were assessed.” for “qRT-PCR.”

[9] = system: ANGPTL3 mRNA in mouse liver; experiment: High sucrose diet mouse dose response study, liver ANGPTL3 mRNA; assay type: in vivo; details: HS diet mice, 6 hours post dose
[10] = High sucrose diet mouse pharmacology study, toxicity; details: OSI-027 50 mg/kg, PF-04691502 10 mg/kg, LY2157299 75 mg/kg, QD oral gavage four days
Protocol: C57BL/6J mice were divided into 12 groups. Each group had 6 male mice. All mice were given a high sucrose (HS) diet at night on a synchronized schedule. The diet regimen was initiated 6 days prior to dosing. Starting Day 7, mice were administered with a single concentration of a candidate compound four times QD daily via oral gavage for four consecutive days. […] Groups 1-10 received food throughout the dosing period. Groups 11-14 received food for three out of the four nights of the dosing and were fed the following morning along with the final dose of the drug. Mice in groups 1-10 were sacrificed 12 hours post-last dose on Day 11, and mice in groups 11-14 were sacrificed 6 hours post-last dose on Day 11. Organs including liver, spleen, kidney, adipose, plasma, and muscle were collected. Eyes were also collected for groups 11-14.

PNPLA3 expression = experiment: RNA-seq of compound-treated primary human hepatocytes; assay type: cell-based; details: PNPLA3 expression, RNA-seq
Protocol: Cryopreserved hepatocytes were cultured in plating media for 16 hours, transferred to maintenance media for 4 hours. Cultured on serum-free media for 2 hours, then a compound was added. The hepatocytes were maintained on the serum-free media for 16 hours prior to gene expression analysis.
Human hepatocytes cultured as described above were plated in 24-well format, adding 375,000 cells per well in a volume of 500 μl plating medium. Four hours before treatment, cells were washed with PBS and the medium was changed to either: fresh maintenance medium (complete) or modified maintenance medium.
Compound stocks were prepared at 1000× final concentration and added in a 2-step dilution to the medium to reduce risk of a compound precipitating out of solution when added to the cells, and to ensure reasonable pipetting volumes. One at a time, each compound was first diluted 10-fold in warm (about 37° C.) modified maintenance medium (initial dilution=ID), mixed by vortexing, and the ID was diluted 100-fold into the cell culture (e.g. 5.1 μl into 1 well of a 24-well plate containing 0.5 mL medium). The plate was mixed by carefully swirling and after all wells were treated and returned to the incubator overnight. If desired, separate plates/wells were treated with vehicle-only controls and/or positive controls. If using multi-well plates, controls were included on each plate. After about 18 hours, cells were harvested for further analysis, e.g., ChIP-seq, RNA-seq, ATAC-seq, etc.
The expression level of each gene was quantified with normalized FPKM (fragments per kilobase of exon per million mapped fragments). The differentially expressed genes were called using Cuffdiff v2.2.1 with q value<0.01 and log2 fold change>=1 or <=−1.
To identify small molecules that modulate PNPLA3, primary human hepatocytes were prepared as a monoculture, and at least one small molecule compound was applied to the cells.
RNA-seq was performed to determine the effects of the compounds on PNPLA3 expression in hepatocytes. Fold change was calculated by dividing the level of expression in the cell system that had been perturbed by the level of expression in an unperturbed system. Changes in expression having a p-value≤0.05 were considered significant.

[11] = system: COL1A1 mRNA in mouse liver; experiment: In vivo compound testing in wild-type mice, liver COL1A1 mRNA; details: 50 mg/kg once daily, oral gavage, four days; GFAP as control
Protocol: A group of 6 mice (C57BL/6J strain), 3 male and 3 female, were administered with a candidate compound once daily via oral gavage for four consecutive days. Mice were sacrificed 4 hours post-last dose on the fourth day. Organs including liver, spleen, kidney, adipose, plasma were collected. Mouse liver tissues were pulverized in liquid nitrogen and aliquoted into small microtubes. TRIzol (Invitrogen Cat #15596026) was added to the tubes to facilitate cell lysis from tissue samples. The TRIzol solution containing the disrupted tissue was then centrifuged and the supernatant phase was collected. Total RNA was extracted from the supernatant using Qiagen RNA Extraction Kit (Qiagen Cat #74182) and the target mRNA levels were analyzed using qRT-PCR.
Candidate compounds were administered at an appropriate dose once daily to a group of wild-type mice consisting of 3 male and 3 female mice. Mice were sacrificed on the fourth day and liver tissue was collected and analyzed for PNPLA3 (or COL1A1) expression by qRT-PCR. […] When COL1A1 was analyzed, a stellate cell specific gene GFAP was used as a house-keeping control.

[12] = hepatic stellate cells, 0.01 μM
[13] = hepatic stellate cells, serial dilutions, 18 hours

Primary Hepatocytes 4178 PCSK9 (fold change in mRNA expression) (PCSK9 mRNA) | Primary Hepatocytes 4178 PNPLA3 (fold change in mRNA expression) (PNPLA3 mRNA [4]) | Primary Hepatocytes 4282 PNPLA3 (fold change in mRNA expression) (PNPLA3 mRNA [4]) | Compound | Primary Stellate cells PNPLA3 (fold change in mRNA expression) (PNPLA3 mRNA [3]) | Relative PNPLA3 mRNA levels RQ (PNPLA3 mRNA [3]; [12]) | Relative PNPLA3 mRNA levels RQ (PNPLA3 mRNA [3]; hepatic stellate cells, 0.1 μM) | Relative PNPLA3 mRNA levels RQ (PNPLA3 mRNA [3]; hepatic stellate cells, 1 μM) | Relative PNPLA3 mRNA levels RQ (PNPLA3 mRNA [3]; hepatic stellate cells, 10 μM) | Relative mRNA PNPLA3 (PNPLA3 mRNA [3]; 18 hours) | Primary Stellate cells COL1A1 (fold change in mRNA expression) (COL1A1 mRNA) | Relative COL1A1 mRNA levels RQ (COL1A1 mRNA; [12]) | Relative COL1A1 mRNA levels RQ (COL1A1 mRNA; hepatic stellate cells, 0.1 μM) | Relative COL1A1 mRNA levels RQ (COL1A1 mRNA; hepatic stellate cells, 1 μM) | Relative COL1A1 mRNA levels RQ (COL1A1 mRNA; hepatic stellate cells, 10 μM) | Relative mRNA COL1A1 (COL1A1 mRNA; 18 hours) | Relative mRNA MMP2 (MMP2 mRNA) | Relative mRNA TIMP2 (TIM2 mRNA) | Relative mRNA TGFB1 (TGFB1 mRNA) | Relative mRNA COL1A2 (COL1A2 mRNA) | Relative mRNA ACTA2 (ACTA2 mRNA) | other results
– | – | – | C[C@@]1(C(=O)Nc2ccc(F)nc2)CCCN1c1nc(Nc2cc(C3CC3)[nH]n2)c2cccn2n1 [BMS-754807] | – | – | – | – | – | – | – | – | – | – | – | – | – | – | – | – | – | combination index [1]: < 1.0
0.98 | 1.50 | 1.63 | CC(C)n1nc(-c2ccc3oc(N)nc3c2)c2c(N)ncnc21 [INK-128] | 0.56 | 0.40 | 0.28 | 0.58 | 0.58 | 0.28 ± 0.01 | 0.47 | 1.05 | 0.27 | 0.32 | 0.21 | 0.23 ± 0.01 | 1.53 ± 0.05 | 1.26 ± 0.01 | 1.20 ± 0.02 | 0.30 ± 0.01 | 0.61 ± 0.02 | Relative PNPLA3 mRNA levels (PNPLA3 mRNA [2]): 0.30 ± 0.14
– | – | – | Cc1cccc(-c2nn3c(c2-c2ccnc4ccc(C(N)=O)cc24)CCC3)n1 [LY2157299, Galunisertib] | – | – | – | – | – | – | – | – | – | – | – | – | – | – | – | – | – | PNPLA3 liver mRNA, 12 hours post-dose (in words) ([5]; QD oral gavage four days, OSI-027 50 mg/kg, PF-04691502 10 mg/kg, LY2157299 75 mg/kg): reduced PNPLA3 mRNA at 12 hours post-dose; PNPLA3 liver mRNA, dose titration (in words) ([5]; decreasing doses QD oral gavage four days, 6 hours post dose): did not show a significant decrease in PNPLA3 or PNPLA5 mRNA; PNPLA5 liver mRNA, dose titration (in words) [6]: did not show a significant decrease in PNPLA3 or PNPLA5 mRNA; COL1A1 liver mRNA, dose titration (in words) [7]: decrease in COL1A1 and ANGLPTL3 mRNA; PCSK9 liver mRNA, dose titration (in words) [8]: three lower doses (50 mg/kg, 25 mg/kg, and 10 mg/kg) resulted in a decrease in PCSK9 mRNA; ANGPTL3 liver mRNA, dose titration (in words) [9]: decrease in COL1A1 and ANGLPTL3 mRNA; toxicity in animals [10]: did not show toxicity; PNPLA3 expression, co-treatment with TGFβ-ligand (in words) (PNPLA3 mRNA [4]; hepatocytes, TGFb-ligand-induced expression): PNPLA3 expression was reduced
0.43 | 0.43 | 0.70 | CNC(=O)Nc1ccc(-c2nc(N3CC4CCC(C3)O4)c3cnn(C4CCC5(CC4)OCCO5)c3n2)cc1 [WYE-125132] | 0.54 | 0.44 | 0.36 | 0.42 | 0.42 | 0.20 ± 0.01 | 0.46 | 0.92 | 0.42 | 0.26 | 0.29 | 0.22 ± 0.01 | 1.33 ± 0.02 | 1.01 ± 0.07 | 1.10 ± 0.03 | 0.27 ± 0.00 | 0.54 ± 0.01 | Fold change (Log 2) vs untreated (PNPLA3 expression): −0.86; PNPLA3 mRNA levels (in words) (PNPLA3 mRNA [3]; [13]): decreased both PNPLA3 and COL1A1 in HSCs in a dose-dependent manner; COL1A1 expression (in words) (COL1A1 mRNA; [13]): decreased both PNPLA3 and COL1A1 in HSCs in a dose-dependent manner; COL1A1 expression in mouse liver (in words) [11]: reduced COL1A1 expression in mouse liver; Relative PNPLA3 mRNA levels (PNPLA3 mRNA [4]; 1 μM of WYE-125132, human hepatocytes, qRT-PCR, mean of three replicates ± standard deviation): 0.67 ± 0.09; PNPLA3 expression by reported compound specificity (in words) (PNPLA3 mRNA [4]; summary of mTOR/PI3K inhibitor testing): did decrease PNPLA3 expression
